Laboratory results from the NIST ThermoML archive (doi:10.1021/je200721d).

Assay: xn = mol fraction of the nth substance listed
Conditions: Liquid, Vibrating tube method

CCCCCCCCCC [decane] + CCCCCC
Conditions	mass density [kg/m3]
343.06 K, 22000 kPa, x2 = 0.7524	665.93
343.06 K, 23000 kPa, x2 = 0.2185	702.17
343.06 K, 23000 kPa, x2 = 0.7524	666.87
343.06 K, 24000 kPa, x2 = 0.2185	702.97
343.06 K, 24000 kPa, x2 = 0.7524	667.79
343.06 K, 25000 kPa, x2 = 0.2185	703.79
343.06 K, 25000 kPa, x2 = 0.7524	668.69
343.08 K, 1000 kPa, x2 = 0.4968	663.07
343.08 K, 2000 kPa, x2 = 0.4968	664.35
343.08 K, 3000 kPa, x2 = 0.4968	665.55
343.08 K, 4000 kPa, x2 = 0.4968	666.8
343.08 K, 5000 kPa, x2 = 0.4968	667.97
343.08 K, 6000 kPa, x2 = 0.4968	669.14
343.08 K, 7000 kPa, x2 = 0.4968	670.28
343.08 K, 8000 kPa, x2 = 0.4968	671.4
343.08 K, 9000 kPa, x2 = 0.4968	672.48
343.08 K, 10000 kPa, x2 = 0.4968	673.55
343.08 K, 11000 kPa, x2 = 0.4968	674.64
343.08 K, 12000 kPa, x2 = 0.4968	675.64
343.08 K, 13000 kPa, x2 = 0.4968	676.63
343.08 K, 14000 kPa, x2 = 0.4968	677.63
343.08 K, 15000 kPa, x2 = 0.4968	678.63
343.08 K, 16000 kPa, x2 = 0.4968	679.61
343.08 K, 17000 kPa, x2 = 0.4968	680.59
343.08 K, 18000 kPa, x2 = 0.4968	681.52
343.08 K, 19000 kPa, x2 = 0.4968	682.46
343.08 K, 20000 kPa, x2 = 0.4968	683.4
343.08 K, 21000 kPa, x2 = 0.4968	684.32
343.08 K, 22000 kPa, x2 = 0.4968	685.22
343.08 K, 23000 kPa, x2 = 0.4968	686.1
343.08 K, 24000 kPa, x2 = 0.4968	686.98
343.08 K, 25000 kPa, x2 = 0.4968	687.83
352.75 K, 1000 kPa, x2 = 0.8991	617.37
352.75 K, 2000 kPa, x2 = 0.8991	618.91
352.75 K, 3000 kPa, x2 = 0.8991	620.43
352.75 K, 4000 kPa, x2 = 0.8991	621.91
352.75 K, 5000 kPa, x2 = 0.8991	623.4
352.75 K, 6000 kPa, x2 = 0.8991	624.85
352.75 K, 7000 kPa, x2 = 0.8991	626.29
352.75 K, 8000 kPa, x2 = 0.8991	627.7
352.75 K, 9000 kPa, x2 = 0.8991	629.09
352.75 K, 10000 kPa, x2 = 0.8991	630.46
352.75 K, 11000 kPa, x2 = 0.8991	631.8
352.75 K, 12000 kPa, x2 = 0.8991	633.12
352.75 K, 13000 kPa, x2 = 0.8991	634.41
352.75 K, 14000 kPa, x2 = 0.8991	635.69
352.75 K, 15000 kPa, x2 = 0.8991	636.93
352.75 K, 16000 kPa, x2 = 0.8991	638.16
352.75 K, 17000 kPa, x2 = 0.8991	639.35
352.75 K, 18000 kPa, x2 = 0.8991	640.52
352.75 K, 19000 kPa, x2 = 0.8991	641.66
352.75 K, 20000 kPa, x2 = 0.8991	642.78
352.75 K, 21000 kPa, x2 = 0.8991	643.87
352.75 K, 22000 kPa, x2 = 0.8991	644.93
352.75 K, 23000 kPa, x2 = 0.8991	645.98
352.75 K, 24000 kPa, x2 = 0.8991	646.99
352.75 K, 25000 kPa, x2 = 0.8991	647.98
352.99 K, 1000 kPa, x2 = 0.0456	682.21
352.99 K, 1000 kPa, x2 = 0.7524	632.44
352.99 K, 2000 kPa, x2 = 0.0456	683.34
352.99 K, 2000 kPa, x2 = 0.7524	633.97
352.99 K, 3000 kPa, x2 = 0.0456	684.46
352.99 K, 3000 kPa, x2 = 0.7524	635.47
352.99 K, 4000 kPa, x2 = 0.0456	685.57
352.99 K, 4000 kPa, x2 = 0.7524	636.89
352.99 K, 5000 kPa, x2 = 0.0456	686.64
352.99 K, 5000 kPa, x2 = 0.7524	638.37
352.99 K, 6000 kPa, x2 = 0.0456	687.71
352.99 K, 6000 kPa, x2 = 0.7524	639.77
352.99 K, 7000 kPa, x2 = 0.0456	688.77
352.99 K, 7000 kPa, x2 = 0.7524	641.14
352.99 K, 8000 kPa, x2 = 0.0456	689.81
352.99 K, 8000 kPa, x2 = 0.7524	642.48
352.99 K, 9000 kPa, x2 = 0.0456	690.83
352.99 K, 9000 kPa, x2 = 0.7524	643.77
352.99 K, 10000 kPa, x2 = 0.0456	691.84
352.99 K, 10000 kPa, x2 = 0.7524	645.03
352.99 K, 11000 kPa, x2 = 0.0456	692.84
352.99 K, 11000 kPa, x2 = 0.7524	646.28
352.99 K, 12000 kPa, x2 = 0.0456	693.82
352.99 K, 12000 kPa, x2 = 0.7524	647.51
352.99 K, 13000 kPa, x2 = 0.0456	694.79
352.99 K, 13000 kPa, x2 = 0.7524	648.71
352.99 K, 14000 kPa, x2 = 0.0456	695.75
352.99 K, 14000 kPa, x2 = 0.7524	649.88
352.99 K, 15000 kPa, x2 = 0.0456	696.69
352.99 K, 15000 kPa, x2 = 0.7524	651.03
352.99 K, 16000 kPa, x2 = 0.0456	697.62
352.99 K, 16000 kPa, x2 = 0.7524	652.16
352.99 K, 17000 kPa, x2 = 0.0456	698.54
352.99 K, 17000 kPa, x2 = 0.7524	653.28
352.99 K, 18000 kPa, x2 = 0.0456	699.44
352.99 K, 18000 kPa, x2 = 0.7524	654.35
352.99 K, 19000 kPa, x2 = 0.0456	700.33
